Assays:
female CD-1 mice = assay: Catalepsy bar test; type: in vivo; conditions: 200 mg/kg IP, 90 min after dosing
physchem = conditions: pH 7.4, […]
[1] = clogP calculated with ChemAxon Marvin Sketch; conditions: 78 vs Sulfadiazine

SMILES | Catalepsy score compared to Vehicle-treated group (in words) (female CD-1 mice) | also measured
CCN(CC)CCNC(=O)c1cc(S(C)(=O)=O)ccc1OC [Tiapride] | significantly higher | –
Nc1ccc(S(=O)(=O)Nc2ncccn2)cc1 [Sulfadiazine] | – | logD (physchem): -0.8
CS(=O)(=O)c1cnc(NS(=O)(=O)c2ccc(N)cc2)nc1.Cl [Compound 78] | – | Decrease of lipophilicity on replacement of H with MeSO2 [1]: ca. 1.2 clogP units
CCN(CC)CCNC(=O)c1cc(S(C)(=O)=O)cnc1OC [Compound 79] | remained at the level of the Control Vehicle-treated group | –

From publication PMC11779965 (Nature Communications, 2025)
